Measured values reported in US5578445A, “In vitro method of evaluating the effects of a substance” (priority 1991, dated 1996).
Like-named read-outs stand apart in the source and are kept apart here.

Key:
ZR 75-1 = assay: Proliferation, amount of ATP after 6 days, ZR 75-1; assay type: cell-based, human; details: for activity at 0.0001 µM: +E2 (0.1 nM), 6 days
Method: The growth is determined by measuring the amount of ATP in the cells after incubation with ligands for 6 days. […]
Samples of the cells ZR 75-1 (8000 cells/well) and MCF7 (4000 cells/well), respectively, were distributed into microtiter plates having 96 wells.
The following hormone additions were made:
The medium was replaced by fresh medium of the same composition as on day 6, and hormone additions as on day 6.
6 days after hormone addition the number of cells and their morphology were investigated. Medium from each well was poured off. To each well was added 100 μl 1% TCA (trichloro acetic acid).

MCF7 = assay: Proliferation, amount of ATP after 6 days, MCF7; details: for activity at 0.0001 µM: +E2 (0.1 nM); for effect on growth: MCF7

SMILES | effect on growth (ZR 75-1; 0.1 nM E2) | activity at 0.0001 µM (ZR 75-1; Homo sapiens, ZR-75-1, 144 h, No LY 117018 added, Experiment 2, read-out: relative amount of ATP (no hormone added = 1)) | activity at 0.0001 µM (ZR 75-1; Homo sapiens, ZR-75-1, 144 h, No Tam added, Experiment 1, read-out: relative amount of ATP (no hormone added = 1)) | activity at 0.0001 µM (MCF7; Homo sapiens, MCF7, 144 h, read-out: relative amount of ATP (no hormone added = 1), MCF7, No LY 117018 added, 6 days, Experiment 2) | activity at 0.0001 µM (MCF7; Homo sapiens, MCF7, 144 h, read-out: relative amount of ATP (no hormone added = 1), MCF7, No Tam added, 6 days, Experiment 1) | effect on growth (MCF7; 0.1 nM E2) | effect on growth (ZR 75-1; 10^-7 M Tamoxifen alone, listed as Tamoxifen) | effect on growth (ZR 75-1; 10^-7 M Tamoxifen alone, listed as tamoxifen) | activity at 1 µM (ZR 75-1; Homo sapiens, ZR-75-1, 144 h, + 10^-6 M Tam, -E2, 6 days, read-out: relative amount of ATP (no hormone added = 1)) | activity at 0.1 µM (ZR 75-1; Homo sapiens, ZR-75-1, 144 h, + 10^-7 M Tam, -E2, 6 days, read-out: relative amount of ATP (no hormone added = 1)) | activity at 0.01 µM (ZR 75-1; Homo sapiens, ZR-75-1, 144 h, + 10^-8 M Tam, -E2, 6 days, read-out: relative amount of ATP (no hormone added = 1)) | activity at 0.001 µM (ZR 75-1; Homo sapiens, ZR-75-1, 144 h, + 10^-9 M Tam, -E2, 6 days, read-out: relative amount of ATP (no hormone added = 1)) | Tamoxifen concentration at which an antagonistic effect can be seen (ZR 75-1; presence of 0.1 nM E2) | activity at 1 µM (MCF7; Homo sapiens, MCF7, 144 h, read-out: relative amount of ATP (no hormone added = 1), MCF7, + 10^-6 M Tam, -E2, 6 days) | activity at 0.1 µM (MCF7; Homo sapiens, MCF7, 144 h, read-out: relative amount of ATP (no hormone added = 1), MCF7, + 10^-7 M Tam, -E2, 6 days) | activity at 0.01 µM (MCF7; Homo sapiens, MCF7, 144 h, read-out: relative amount of ATP (no hormone added = 1), MCF7, + 10^-8 M Tam, -E2, 6 days) | activity at 0.001 µM (MCF7; Homo sapiens, MCF7, 144 h, read-out: relative amount of ATP (no hormone added = 1), MCF7, + 10^-9 M Tam, -E2, 6 days) | effect on growth (MCF7; Tamoxifen alone)
C[C@]12CC[C@@H]3c4ccc(O)cc4CC[C@H]3[C@@H]1CC[C@@H]2O [E2, estradiol] | increase their growth dramatically | 468% | 351% | 230% | 266% | increase their growth dramatically | – | – | – | – | – | – | – | – | – | – | – | –
CC/C(=C(\c1ccccc1)c1ccc(OCCN(C)C)cc1)c1ccccc1 [Tam, tamoxifen] | – | – | – | – | – | – | functions as a weak agonist | weak agonistic effect | 131% | 155% | 109% | 91% | 10^-6 M | 94% | 109% | 122% | 96% | has no effect
